Measured values published in US12185723B2, “Herbicidally active 3-phenylisoxazoline-5-carboxamides of s-containing cyclopentenylcarboxylic esters” (Bayer Aktiengesellschaft, priority 2019, dated 2025).

Tests used:
Format in all cases: in vivo
[1] = tested on: Viola tricolor; assay: Post-emergence herbicidal action against VIOTR; conditions: 20 g a.i./ha
Method: (§1) Post-Emergence Herbicidal Action Against Harmful Plants and Crop Plant Compatibility Seeds of monocotyledonous and dicotyledonous weeds and crop plants are placed in sandy loam in plastic or wood-fibre pots, covered with soil and cultivated in a greenhouse under controlled growth conditions. 2 to 3 weeks after sowing, the test plants are treated at the one-leaf stage. The compounds of the invention, formulated in the form of wettable powders (WP) or as emulsion concentrates (EC), are then sprayed onto the green parts of the plants as aqueous suspension or emulsion with addition of 0.5% additive at a water application rate of 600 l/ha (converted). After the test plants have been kept in the greenhouse under optimum growth conditions for about 3 weeks, the activity of the preparations is rated visually in comparison to untreated controls. For example, 100% activity=the plants have died, 0% activity=like control plants. [table]

[2] = tested on: Veronica persica; assay: Post-emergence herbicidal action against VERPE
In short: (§2)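 Sow in sandy loam; greenhouse; spray at one-leaf stage (2–3 wk after sowing). WP/EC formulation, 0.5% additive, 600 l/ha water. Visual rating ~3 wk later vs untreated; 100% = dead.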

[3] = tested on: Stellaria media; assay: Post-emergence herbicidal action against STEME
Method: as §1

[4] = tested on: Lolium rigidum; assay: Post-emergence herbicidal action against LOLRI; conditions: visual rating about 3 weeks after treatment
In short: as §2

[5] = tested on: Abutilon theophrasti; assay: Post-emergence herbicidal action against ABUTH; conditions: visual rating about 3 weeks after treatment
In short: as §2

[6] = tested on: Echinochloa crus-galli; assay: Post-emergence herbicidal action against ECHCG; conditions: visual rating about 3 weeks after treatment
In short: as §2

[7] = tested on: DIGSA; assay: Post-emergence herbicidal action against DIGSA; conditions: visual rating about 3 weeks after treatment
In short: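 Greenhouse-grown plants sprayed at one-leaf stage (2–3 weeks after sowing) with WP or EC formulations as aqueous suspension/emulsion plus 0.5% additive, 600 l/ha water. Activity rated visually about 3 weeks later versus untreated controls, 100% = plants dead, 0% = like controls.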

[8] = tested on: Alopecurus myosuroides; assay: Post-emergence herbicidal action against ALOMY; conditions: visual rating about 3 weeks after treatment
In short: as §2

[9] = tested on: Avena fatua; assay: Post-emergence herbicidal action against AVEFA; conditions: 20 g a.i./ha, visual rating about 3 weeks after treatment
In short: as §2

[10] = tested on: Polygonum convolvulus; assay: Post-emergence herbicidal action against POLCO; conditions: 20 g a.i./ha
In short: as §2

[11] = tested on: Matricaria inodora; assay: Post-emergence herbicidal action against MATIN; conditions: 20 g a.i./ha
Method: as §1

[12] = tested on: Setaria viridis; assay: Post-emergence herbicidal action against SETVI; conditions: 20 g a.i./ha, visual rating about 3 weeks after treatment
In short: as §2

[13] = tested on: Amaranthus retroflexus; assay: Post-emergence herbicidal action against AMARE; conditions: 20 g a.i./ha
In short: as §2

[14] = tested on: Pharbitis purpurea; assay: Post-emergence herbicidal action against PHBPU; conditions: 20 g a.i./ha
In short: as §2

Compound | Herbicidal action against [%] VERPE ([2]; 20 g a.i./ha) | Herbicidal action against [%] LOLRI ([4]; 20 g a.i./ha) | Herbicidal action against [%] ABUTH ([5]; 20 g a.i./ha) | Herbicidal action against [%] ECHCG ([6]; 20 g a.i./ha) | Herbicidal action against [%] AVEFA [9] | Herbicidal action against [%] POLCO [10] | Herbicidal action against [%] MATIN [11] | Herbicidal action against [%] SETVI [12] | Herbicidal action against [%] AMARE [13] | Herbicidal action against [%] PHBPU [14] | Herbicidal action against [%] DIGSA ([7]; 20 g a.i./ha) | Herbicidal action against [%] ALOMY ([8]; 20 g a.i./ha) | further results
CSCCOC(=O)C1C=CC(NC(=O)C2(C)CC(c3cccc(C#N)c3)=NO2)C1 (stereo not shown) [Example I-40] | 80% | 80% | 80% | 80% |  |  |  |  |  |  |  |  | Herbicidal action against [%] VIOTR [1]: 80%; Herbicidal action against [%] VERPE ([2]; 80 g a.i./ha): 80%; Herbicidal action against [%] STEME ([3]; 20 g a.i./ha): 80%; Herbicidal action against [%] STEME ([3]; 80 g a.i./ha): 80%; Herbicidal action against [%] LOLRI ([4]; 80 g a.i./ha): 80%; Herbicidal action against [%] ABUTH ([5]; 80 g a.i./ha): 80%; Herbicidal action against [%] ECHCG ([6]; 80 g a.i./ha): 80%; Herbicidal action against [%] DIGSA ([7]; 80 g a.i./ha): 80%; Herbicidal action against [%] ALOMY ([8]; 80 g a.i./ha): 80%
COC(=O)CSCCOC(=O)C1C=CC(NC(=O)C2(C)CC(c3cc(F)cc(F)c3)=NO2)C1 (stereo not shown) [Example I-64] | 80% | 90% | 80% | 90% | 90% | 80% | 90% | 80% | 90% | 80% | 90% | 90% | 
COC1(C(=O)NC2C=CC(C(=O)OCCSC(=O)C(C)C)C2)CC(c2cc(F)cc(F)c2)=NO1 (stereo not shown) [Example I-23] | 90% | 90% | 80% | 90% | 90% | 80% | 80% | 80% | 80% | 80% | 90% | 90% | 
CC(C)CSCCOC(=O)C1C=CC(NC(=O)C2(C)CC(c3cc(F)cc(F)c3)=NO2)C1 (stereo not shown) [Example I-08] | 80% | 90% | 90% | 90% | 90% | 90% | 80% | 90% | 90% | 90% | 90% | 100% | 
COC1(C(=O)NC2C=CC(C(=O)OCCSC(=O)N(C)C)C2)CC(c2cc(F)cc(F)c2)=NO1 (stereo not shown) [Example I-24] | 100% | 90% | 80% | 90% | 90% | 80% | 80% | 90% | 90% | 80% | 80% | 80% | 
COC1(C(=O)NC2C=CC(C(=O)OCCSC)C2)CC(c2cc(F)cc(F)c2)=NO1 (stereo not shown) [Example I-19] | 90% | 90% | 80% | 90% | 90% | 80% | 80% | 90% | 80% | 80% | 90% | 80% | 
